Values of other authors in patent US7300768B2 (Saladax Biomedical Inc., priority 2004, dated 2007).

Details: imatinib and its salts; Gleevec package insert, Pindolia et al.

degree of intra- and inter-individual pharmacokinetic variability: four fold
SMILES: Cc1ccc(NC(=O)c2ccc(CN3CCN(C)CC3)cc2)cc1Nc1nccc(-c2cccnc2)n1 [imatinib]
